Measurements as given in patent US11833187B2, “Materials and methods for extracellular vessicle-associated diseases” (THE BRIGHAM AND WOMEN'S HOSPITAL, INC., priority 2017, dated 2023).
“Also recorded” adds a separate entry of the source. Peptide text beside a SMILES is read from it. * marks the point of attachment. Cbz = O=C(OCc1ccccc1)*

Key:
FLAG-sortilin [1] = molecular target: T1, FLAG-sortilin (Homo sapiens, UniProt Q99523); test: Non-reducing western blotting of sortilin dimerization in FLAG-sortilin HEK293 cells; type: cell-based; conditions: for sortilin homodimers of low molecular weight in the cells: HEK293 cells stably overexpressing FLAG-sortilin, 24-h incubation, n=3; for dimerization of sortilin in the cells: FLAG-sortilin HEK293 cells, propeptide 100 nmol/L, 24 hours, n=2
T1 construct: pcDNA3.1(+) FLAG-sortilin full-length (Full), amino acids (aa) 1-831; expressed in transfected cells; cells and their extracellular vesicles
T1 sequence (Q99523 78-831): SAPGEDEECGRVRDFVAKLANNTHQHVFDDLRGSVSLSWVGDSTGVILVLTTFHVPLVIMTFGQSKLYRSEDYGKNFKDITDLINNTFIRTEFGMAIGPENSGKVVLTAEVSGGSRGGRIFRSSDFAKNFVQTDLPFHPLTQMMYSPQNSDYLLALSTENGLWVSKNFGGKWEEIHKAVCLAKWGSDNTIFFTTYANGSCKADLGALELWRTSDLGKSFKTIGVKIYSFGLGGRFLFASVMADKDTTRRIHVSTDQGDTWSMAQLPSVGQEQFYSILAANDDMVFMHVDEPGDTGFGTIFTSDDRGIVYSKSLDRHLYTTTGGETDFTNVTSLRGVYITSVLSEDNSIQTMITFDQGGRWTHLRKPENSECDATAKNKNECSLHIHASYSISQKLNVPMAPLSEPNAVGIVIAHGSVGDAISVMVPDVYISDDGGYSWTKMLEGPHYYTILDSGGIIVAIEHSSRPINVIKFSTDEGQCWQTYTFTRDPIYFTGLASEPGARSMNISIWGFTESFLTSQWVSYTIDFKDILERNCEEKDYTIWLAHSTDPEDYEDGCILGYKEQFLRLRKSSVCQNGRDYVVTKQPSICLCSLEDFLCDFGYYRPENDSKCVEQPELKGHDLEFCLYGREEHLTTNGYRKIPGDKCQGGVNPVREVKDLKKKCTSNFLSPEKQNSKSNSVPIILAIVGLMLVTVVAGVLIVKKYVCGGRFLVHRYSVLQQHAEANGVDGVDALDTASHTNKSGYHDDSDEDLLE
Method: (§1) Cells, EVs and the supernatant of culture medium were lysed with IP lysis buffer (Thermo Fisher Scientific Inc., Cat #87787) containing protease inhibitor (Roche Diagnostics, Cat #04693159001). Protein concentration was measured using the bicinchoninic acid (BCA) method (Thermo Fisher Scientific Inc., Cat #23225). Laemmli buffer (Boston Bioproduct; non-reducing, Cat #BP-110NR; reducing, Cat #BP-111R) was added to the lysate, and boiled at 95° C. for 5 minutes. Total protein was separated by 4-12% SDS-PAGE and transferred to polyvinylidene difluoride (PVDF) membrane using iBlot Western blotting system (Life Technologies) or conventional wet method. Primary antibodies against human sortilin ICD (rabbit 1:1000; Abcam plc., Cat #ab16640, Lot #GR185198-1), human (3-actin (mouse 1:2000; Novus Biologicals, LLC, Cat #NB600-501, Lot #014M4759), FLAG (rabbit 1:1000; Sigma, Cat #F4725, Lot #093M4798, mouse (M2) 1:1000; Sigma, Cat #F1804, Lot #SLBJ4607V), 6×His (mouse 1:1000; Abcam plc., Cat #ab18184, Lot #GR247674-1).
(§2) HEK293 cells were purchased from American Type Culture Collection (ATCC) and maintained in Eagle's minimum essential medium (EMEM, ATCC, Cat #30-2003) supplemented with 10% fetal bovine serum (FBS), penicillin (100 U/mL), and streptomycin (100 μg/mL) at 37° C. in a humidified atmosphere of 5% CO2. For transfection in HEK293 cells, Lipofectamine 2000 reagent (Thermo Fisher Scientific Inc., Cat #11668019) was used, according to the manufacturer's protocol. HEK293 cells stably expressing FLAG-sortilin Full, ECD+TMD, ICD+TMD and sortilin-3×FLAG were obtained by transfection with pcDNA3.1(+) FLAG-sortilin Full, pcDNA3.1(+) FLAG-sortilin-ECD+TMD, pcDNA3.1(+) FLAG-sortilin ICD+TMD, and expression vector of sortilin-3×FLAG (GeneCopoeia, Inc., Cat # EX-M0397-M14), respectively. These cell lines were maintained in EMEM supplemented with 10% FBS, penicillin/streptomycin, and geneticin 800 μg/mL. Cells were incubated in the incubator with MG-132 and chloroquine during the indicated time, and with 2-FPA and sortilin propeptide for 24 hours, respectively.

FLAG-sortilin [2] = molecular target: T1, FLAG-sortilin; test: Non-reducing western blotting of sortilin dimerization in extracellular vesicles of FLAG-sortilin HEK293 cells; type: cell-based; conditions: for sortilin homodimers (dimerization) in the extracellular vesicles: EVs of HEK293 cells stably overexpressing FLAG-sortilin, 24-h incubation, n=3; for dimerization of sortilin in the extracellular vesicles: EVs of FLAG-sortilin HEK293 cells, propeptide 100 nmol/L, 24 hours, n=2
Method: as §1, §2
Separation of culture medium to supernatant and EVs was performed according to the protocol previously reported (41). Culture medium underwent centrifugation at 1,000 rpm for 5 minutes to remove cell debris. Then, the supernatant and EVs were separated by ultracentrifugation at 100,000 g for 40 minutes at 4° C. (Optima Max Ultracentrifuge, Beckman Coulter).

FLAG-sortilin ICD+TMD = test: Reducing western blotting of FLAG-sortilin ICD+TMD protein expression in stably overexpressing HEK293 cells; type: cell-based, human; conditions: for protein expression of FLAG-sortilin ICD+TMD: MG-132 20 μmol/L or chloroquine 10 μmol/L for 7 hours, n=3
Method: as §1, §2

[3] = listed as palmitoylation inhibitor

In the case of `CCCCCCCCCCCCCCC(F)C(=O)O` (stereo not drawn) [2-FPA, 2-fluoropalmitic acid], the “sortilin homodimers of low molecular weight in the cells” value (FLAG-sortilin [1]) is reported as “increased only homodimers of lower molecular size in the cells; also recorded: increased sortilin homodimers of low molecular weight”, the “sortilin homodimers of low molecular weight in the cells” value (FLAG-sortilin [1]; [3]) is reported as “increased sortilin dimerization” and the “sortilin homodimers (dimerization) in the extracellular vesicles” value (FLAG-sortilin [2]) is reported as “increased dimerization of FLAG-sortilin in the EVs; also recorded: increased sortilin homodimers of low molecular weight”. For the same molecule, the “sortilin homodimers (dimerization) in the extracellular vesicles” value (FLAG-sortilin [2]; [3]) was “increased transport of dimerized sortilin to EVs”.
With `CC(C)C[C@@H](C=O)NC(=O)[C@H](CC(C)C)NC(=O)[C@H](CC(C)C)NC(=O)OCc1ccccc1` [MG-132] (Cbz-Leu-Leu-Leu-aldehyde) the “protein expression of FLAG-sortilin ICD+TMD” value (FLAG-sortilin ICD+TMD) was “increased the protein expression of FLAG-sortilin ICD+TMD” and the “protein expression of FLAG-sortilin ICD+TMD, time and concentration dependence” value (FLAG-sortilin ICD+TMD; MG-132 2-20 μmol/L for 7 or 24 hours) was “increased protein expression of FLAG-sortilin ICD+TMD in a time- and concentration-dependent manner”.
In the case of Chloroquine diphosphate salt, the “protein expression of FLAG-sortilin ICD+TMD” value (FLAG-sortilin ICD+TMD) is reported as “did not”.
“sortilin-derived propeptide: Sortilin propeptide (SEQ ID NO: 2), purchased from Phoenix Pharmaceuticals; the claimed inhibitor of sortilin dimerization (QDRLDAPPPPAAPLPRWSGPIGVSWGLRAAAAGGAFPRGGRWRR; listed as Homo sapiens)” was tested, and the “dimerization of sortilin in the cells” value (FLAG-sortilin [1]) was “did not affect dimerization in the cells”, the “dimerization of sortilin in the cells” value (FLAG-sortilin [1]; listed as propeptide) was “a decrease in the cells was not observed” and the “sortilin dimerization (formation of homodimers), compartment not given” value (FLAG-sortilin [1]; HEK293 cell line, propeptide treatment, summary statement) was “reduced them; also recorded: sortilin dimerization was decreased”. For the same molecule, the “dimerization of sortilin in the extracellular vesicles” value (FLAG-sortilin [2]) was “decreased sortilin homodimers within EVs; also recorded: decreases sortilin homodimers in EVs; also recorded: decreased dimerization in the extracellular vesicles” and the “dimerization of sortilin in the extracellular vesicles” value (FLAG-sortilin [2]; listed as propeptide) was “decreased dimerization of sortilin in the extracellular vesicles”.
